Experimental data as given in patent US8143243B2, “Compounds for the treatment of hepatitis C” (Bristol-Myers Squibb Company, priority 2007, dated 2012).
Where two headings read alike, the source gives them in different places.

Experiments:
[1] = target: T1, HCV NS5B (Hepatitis C virus genotype 1b, UniProt Q9WMX2); assay: HCV NS5B RdRp enzyme assay (standard / modified); format: biochemical
T1 construct: The protein was expressed with an 18 amino acid C-terminal truncation to enhance the solubility; made in house; host or cells: E. coli BL21 (DE3)
T1 sequence (Q9WMX2 2420-2992): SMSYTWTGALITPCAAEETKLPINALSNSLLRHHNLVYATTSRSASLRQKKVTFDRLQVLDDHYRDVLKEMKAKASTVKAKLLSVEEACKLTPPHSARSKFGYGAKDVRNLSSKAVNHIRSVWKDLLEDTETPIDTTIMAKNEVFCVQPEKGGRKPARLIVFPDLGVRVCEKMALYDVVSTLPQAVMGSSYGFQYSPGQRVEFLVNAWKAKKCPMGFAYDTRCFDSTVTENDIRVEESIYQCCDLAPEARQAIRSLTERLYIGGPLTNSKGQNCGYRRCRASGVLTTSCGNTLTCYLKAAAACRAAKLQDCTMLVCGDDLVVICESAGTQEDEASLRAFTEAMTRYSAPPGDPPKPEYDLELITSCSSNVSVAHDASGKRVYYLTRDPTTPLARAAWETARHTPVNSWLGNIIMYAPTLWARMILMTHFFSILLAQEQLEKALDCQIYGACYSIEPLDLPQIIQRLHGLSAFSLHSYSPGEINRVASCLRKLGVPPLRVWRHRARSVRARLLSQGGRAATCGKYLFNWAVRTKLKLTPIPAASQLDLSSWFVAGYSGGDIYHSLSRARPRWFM
Outline: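 NS5B genotype 1b, 18-aa C-terminal truncation, E. coli-expressed; polyA template with biotinylated oligo-dT12 primer, 3H-UTP 0.29 μM, 30° C, SPA read-out in 20 mM Hepes pH 7.5, 2% DMSO. Standard: 28 nM enzyme, 6 nM template, 180 nM primer, 60 min; modified: 14 nM enzyme, 0.2 nM template, 20 nM bead-precaptured primer, 4 h. IC50 from seven concentrations.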

[2] = test system: HCV replicon cells; assay: HCV replicon FRET / luciferase assay; format: cell-based; conditions: Hepatitis C virus
Text: FRET Assay Preparation. To perform the HCV FRET screening assay, 96-well cell culture plates were used. The FRET peptide (Anaspec, Inc.) (Taliani et al., Anal. Biochem. 1996, 240, 60-67) contains a fluorescence donor, EDANS, near one end of the peptide and an acceptor, DABCYL, near the other end. The fluorescence of the peptide is quenched by […] resonance energy transfer (RET) between the donor and the acceptor, but as the NS3 protease cleaves the peptide the products are released from RET quenching and the fluorescence of the donor becomes apparent. The assay reagent was made as follows: 5× cell Luciferase cell culture lysis reagent from Promega (#E153A) diluted to 1× with dH2O, NaCl added to 150 mM final, the FRET peptide diluted to 20 μM final from a 2 mM stock.
To prepare plates, HCV replicon cells, with or without a Renilla luciferase reporter gene, were trypsinized and placed into each well of a 96-well plate with titrated test compounds added in columns 3 through 12; columns 1 and 2 contained a control compound (HCV protease inhibitor), and the bottom row contained cells without compound. The plates were then placed in a CO2 incubator at 37° C.
Assays. Subsequent to addition of the test compounds described above (FRET Assay Preparation), at various times the plate was removed and Alamar blue solution (Trek Diagnostics, #00-100) was added per well as a measure of cellular toxicity. After reading in a Cytoflour 4000 instrument (PE Biosystems), plates were rinsed with PBS and then used for FRET assay by the addition of 30 ul of the FRET peptide assay reagent described above (FRET Assay Preparation) per well. The plate was then placed into the Cytoflour 4000 instrument which had been set to 340 excite/490 emission, automatic mode for 20 cycles and the plate read in a kinetic mode. Typically, the signal to noise using an endpoint analysis after the reads was at least three-fold. Alternatively, after Alamar blue reading, plates were rinsed with PBS, 50 ul of DMEM (high glucose) without phenol red was added and plates were then used for luciferase assay using the Promega Dual-Glo Luciferase Assay System.
Compound analysis was determined by quantification of the relative HCV replicon inhibition and the relative cytotoxicity values. To calculate cytoxicity values, the average Alamar Blue fluorescence signals from the control wells were set as 100% non-toxic. The individual signals in each of the compound test wells were then divided by the average control signal and multiplied by 100% to determine […]. To calculate the HCV replicon inhibition values, an average background value was obtained from the two wells containing the highest amount of HCV protease inhibitor at the end of the assay period. These numbers were similar to those obtained from naïve Huh-7 cells.
The background numbers were then subtracted from the average signal obtained from the control wells and this number was used as 100% activity. The individual signals in each of the compound test wells were then divided by the averaged control values after background subtraction and multiplied by 100% to determine percent activity. EC50 values for a protease inhibitor titration were calculated as the concentration which caused a 50% reduction in FRET or luciferase activity. The two numbers generated for the compound plate, percent cytoxicity and percent activity were used to determine compounds of interest for further analysis.

[3] = HCV RdRp genotype 1b enzyme, read-out: IC50
[4] = HCV replicon cells, FRET or luciferase readout, read-out: EC50

SMILES	IC50 [1, 3]	EC50 [2, 4]	IC50 [1]	EC50 [2]
COc1ccc2c(c1)C=C(c1c(C(=O)N3CCOCC3)cnn1C(C)C)Cn1c-2c(C2CCCCC2)c2ccc(C(=O)NS(=O)(=O)CC(C)C)cc21	1 to 500 nM	1 to 500 nM	–	–
COc1ccc2c(c1)C=C(c1c(C(=O)N3CCOCC3)cnn1C)Cn1c-2c(C2CCCCC2)c2ccc(C(=O)NS(=O)(=O)C3CCCC3)cc21	1 to 500 nM	1 to 500 nM	–	–
COc1ccc2c(c1)C=C(c1c(C(=O)N3C4CCCC3COC4)cnn1C)Cn1c-2c(C2CCCCC2)c2ccc(C(=O)NS(=O)(=O)CC(C)C)cc21	–	–	1 to 500 nM	1 to 500 nM
COc1ccc2c(c1)C=C(c1c(C(=O)O)ccn1C(C)C)Cn1c-2c(C2CCCCC2)c2ccc(C(=O)NS(=O)(=O)C(C)C)cc21	1 to 500 nM	> 500 nM	–	–
COc1ccc2c(c1)C=C(c1c(C(=O)N(C)C3CCN(C)C3)cnn1C)Cn1c-2c(C2CCCCC2)c2ccc(C(=O)NS(=O)(=O)N3CCOCC3)cc21 (centres unmarked)	1 to 500 nM	1 to 500 nM	–	–
COc1ccc2c(c1)C=C(c1ocnc1C(=O)N1CCOCC1)Cn1c-2c(C2CCCCC2)c2ccc(C(=O)NS(=O)(=O)C3CC3)cc21	1 to 500 nM	1 to 500 nM	–	–
COc1ccc2c(c1)C=C(c1c(C(=O)N3CCOCC3)c(C)nn1C)Cn1c-2c(C2CCCCC2)c2ccc(C(=O)NS(=O)(=O)CC(C)C)cc21	1 to 500 nM	1 to 500 nM	–	–
COc1ccc2c(c1)C=C(c1c(C(=O)N3CCOCC3)cnn1C)Cn1c-2c(C2CCCCC2)c2ccc(C(=O)NS(=O)(=O)C3CCC3)cc21	1 to 500 nM	1 to 500 nM	–	–
COc1ccc2c(c1)C=C(c1c(C(=O)N3CC4CCC(C3)O4)c(C)nn1C)Cn1c-2c(C2CCCCC2)c2ccc(C(=O)NS(=O)(=O)C(C)C)cc21	1 to 500 nM	1 to 500 nM	–	–
COc1ccc2c(c1)C=C(c1c(C(=O)N3CCCN(C)CC3)cnn1C)Cn1c-2c(C2CCCCC2)c2ccc(C(=O)NS(=O)(=O)N3CCOCC3)cc21	< 20 nM	1 to 500 nM	–	–
COc1ccc2c(c1)C=C(c1c(C(=O)N3C[C@@H](C)O[C@@H](C)C3)cnn1CC(C)C)Cn1c-2c(C2CCCCC2)c2ccc(C(=O)NS(=O)(=O)C(C)C)cc21	1 to 500 nM	1 to 500 nM	–	–
CCN1C[C@@H]2C[C@H]1CN2C(=O)c1cnn(CC)c1C1=Cc2cc(OC)ccc2-c2c(C3CCCCC3)c3ccc(C(=O)NS(=O)(=O)C(C)C)cc3n2C1	1 to 500 nM	1 to 500 nM	–	–
COc1ccc2c(c1)C=C(c1c(C(=O)N3CCN(C)CC3)cnn1C)Cn1c-2c(C2CCCCC2)c2ccc(C(=O)NS(=O)(=O)N3CCOCC3)cc21	1 to 500 nM	1 to 500 nM	–	–
CCn1ncc(C(=O)N2CCN(C)CC2)c1C1=Cc2cc(OC)ccc2-c2c(C3CCCCC3)c3ccc(C(=O)NS(=O)(=O)N(C)C)cc3n2C1	1 to 500 nM	1 to 500 nM	–	–
COc1ccc2c(c1)C=C(c1c(C(=O)N3CCOCC3)cnn1C(C)C)Cn1c-2c(C2CCCCC2)c2ccc(C(=O)NS(=O)(=O)N(C)C)cc21	1 to 500 nM	1 to 500 nM	–	–
COc1ccc2c(c1)C=C(c1c(C(=O)N(CC3CCCO3)C(C)C)cnn1C)Cn1c-2c(C2CCCCC2)c2ccc(C(=O)NS(=O)(=O)C(C)C)cc21 (centres unmarked)	1 to 500 nM	1 to 500 nM	–	–
COc1ccc2c(c1)C=C(c1c(C(=O)N3C[C@@H]4C[C@H]3CO4)cnn1CC(F)(F)F)Cn1c-2c(C2CCCCC2)c2ccc(C(=O)NS(=O)(=O)C(C)C)cc21	1 to 500 nM	1 to 500 nM	–	–
CCC(C)S(=O)(=O)NC(=O)c1ccc2c(C3CCCCC3)c3n(c2c1)CC(c1c(C(=O)N2CCCC(N(C)C)C2)cnn1C)=Cc1cc(OC)ccc1-3 (centres unmarked)	1 to 500 nM	1 to 500 nM	–	–
COc1ccc2c(c1)C=C(c1c(C(=O)N3C4CCC3CN(C)C4)cnn1C)Cn1c-2c(C2CCCCC2)c2ccc(C(=O)NS(=O)(=O)N(C)C)cc21	–	–	1 to 500 nM	1 to 500 nM
